Laboratory results taken from ChEMBL document CHEMBL1201862, “PubChem BioAssay data set” (2004).
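Following 48 hours of exposure in 96-well plates, responses at five concentrations were used to interpolate endpoints linearly. GI50: concentration for 50% inhibition of growth.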 Active and inactive are the calls of the source. Rule as the data show it: active = GI50 up to about 1.1 µM and inactive = higher.

Tests used:
Test in all cases: NCI tumour cell line growth inhibition, 48 h
[1] = tested on: UACC-62
[2] = tested on: HT-29
[3] = tested on: UO-31
[4] = tested on: SN12C
[5] = tested on: NCI-H522
[6] = tested on: SW-620
[7] = tested on: K562
[8] = tested on: RPMI-8226
[9] = tested on: CCRF-CEM
[10] = tested on: SK-MEL-2
[11] = tested on: COLO 205
[12] = tested on: NCI/ADR-RES
[13] = tested on: KM12
[14] = tested on: Hs-578T
[15] = tested on: IGROV-1
[16] = tested on: OVCAR-3
[17] = tested on: PC-3
[18] = tested on: SK-OV-3
[19] = tested on: U-251

| Structure (SMILES) | GI50 [1] | GI50 [2] | GI50 [3] | GI50 [4] | GI50 [5] | GI50 [6] | GI50 [7] | GI50 [8] | GI50 [9] | GI50 [10] | GI50 [11] | GI50 [12] | GI50 [13] | GI50 [14] | GI50 [15] | GI50 [16] | GI50 [17] | GI50 [18] | GI50 [19] |
| --- | --- | --- | --- | --- | --- | --- | --- | --- | --- | --- | --- | --- | --- | --- | --- | --- | --- | --- | --- |
| COc1ccc(N2C(=O)C(C)SC2c2cc3cc(Br)ccc3nc2Cl)cc1 (configuration not stated) | 26.2 µM (inactive) | 32.4 µM (inactive) | 33.6 µM (inactive) | 35.2 µM (inactive) | 21.3 µM (inactive) | 30.4 µM (inactive) | 31.3 µM (inactive) | 32.7 µM (inactive) | 26.6 µM (inactive) | 19.7 µM (inactive) | 35.5 µM (inactive) | 24.3 µM (inactive) | 30.8 µM (inactive) | 38.5 µM (inactive) | 7.93 µM (inactive) | 34.9 µM (inactive) | 25.4 µM (inactive) | 59.8 µM (inactive) | – |
| COC(=O)c1c(O)ccc2c1c1c(n2Cc2cccc(C)c2)C(=O)c2ccccc2C1=O | – | 4.07 µM (inactive) | 5.92 µM (inactive) | 7.76 µM (inactive) | 11.5 µM (inactive) | 14.2 µM (inactive) | 8.91 µM (inactive) | 3.72 µM (inactive) | 4.86 µM (inactive) | 12.6 µM (inactive) | 1.67 µM (inactive) | 9.42 µM (inactive) | 11 µM (inactive) | 12.4 µM (inactive) | 11.4 µM (inactive) | 8.2 µM (inactive) | 11 µM (inactive) | 11.4 µM (inactive) | 11.6 µM (inactive) |
| C1CSCCCSCCCSCCCSCCCSCCCSCCCSCCCSC1 | – | > 100 µM (inactive) | > 100 µM (inactive) | > 100 µM (inactive) | > 100 µM (inactive) | > 100 µM (inactive) | > 100 µM (inactive) | > 100 µM (inactive) | > 100 µM (inactive) | > 100 µM (inactive) | > 100 µM (inactive) | > 100 µM (inactive) | > 100 µM (inactive) | > 100 µM (inactive) | > 100 µM (inactive) | > 100 µM (inactive) | > 100 µM (inactive) | > 100 µM (inactive) | > 100 µM (inactive) |
| O=C1N/C(=N/N=C\C(O)C(O)C(O)C(O)CO)N/C1=C\c1ccc(Cl)cc1 (configuration not stated) | 0.571 µM (active) | 17.4 µM (inactive) | 44.1 µM (inactive) | 1.51 µM (inactive) | 2.75 µM (inactive) | 8.87 µM (inactive) | 10.6 µM (inactive) | > 62.8 µM (inactive) | 4.89 µM (inactive) | 7.06 µM (inactive) | 8 µM (inactive) | > 100 µM (inactive) | 22.1 µM (inactive) | 2.48 µM (inactive) | 12.4 µM (inactive) | 2.18 µM (inactive) | 5.52 µM (inactive) | 16.6 µM (inactive) | 2.15 µM (inactive) |
| CSc1cc(-c2cccs2)sc1-c1cc(SC)c(-c2sc(-c3sc(-c4cccs4)cc3SC)cc2SC)s1 | > 100 µM (inactive) | > 100 µM (inactive) | – | > 100 µM (inactive) | > 100 µM (inactive) | > 100 µM (inactive) | > 100 µM (inactive) | > 100 µM (inactive) | > 100 µM (inactive) | > 100 µM (inactive) | > 100 µM (inactive) | > 100 µM (inactive) | > 100 µM (inactive) | > 100 µM (inactive) | > 100 µM (inactive) | > 100 µM (inactive) | > 100 µM (inactive) | > 100 µM (inactive) | > 100 µM (inactive) |
| C=CCn1c(N)c(C#N)c(C#N)c1-c1ccccc1 | > 100 µM (inactive) | > 100 µM (inactive) | > 100 µM (inactive) | > 100 µM (inactive) | > 100 µM (inactive) | > 100 µM (inactive) | > 100 µM (inactive) | > 100 µM (inactive) | > 100 µM (inactive) | 26.8 µM (inactive) | > 100 µM (inactive) | > 100 µM (inactive) | > 100 µM (inactive) | > 100 µM (inactive) | > 100 µM (inactive) | > 100 µM (inactive) | > 100 µM (inactive) | > 100 µM (inactive) | > 100 µM (inactive) |
| Cc1cc(O)c2c(c1)C(=O)C(c1c(C)cc3c(c1O)C(=O)C1OC1C3=O)=CC2=O (configuration not stated) | 2.04 µM (inactive) | 3.36 µM (inactive) | 1.8 µM (inactive) | 3.44 µM (inactive) | 0.469 µM (active) | 1.42 µM (inactive) | 0.339 µM (active) | 0.357 µM (active) | 0.0667 µM (active) | 10.7 µM (inactive) | 0.561 µM (active) | 2.77 µM (inactive) | 13.7 µM (inactive) | 4.16 µM (inactive) | 9.1 µM (inactive) | 1.83 µM (inactive) | 12.5 µM (inactive) | 17.7 µM (inactive) | 6.9 µM (inactive) |
| COC(=O)c1ccccc1CC(Cc1ccc2c(c1)CCC2)C(=O)OC (configuration not stated) | – | 50.6 µM (inactive) | > 100 µM (inactive) | > 100 µM (inactive) | 66.1 µM (inactive) | > 100 µM (inactive) | 95.1 µM (inactive) | > 100 µM (inactive) | 47.3 µM (inactive) | > 100 µM (inactive) | > 100 µM (inactive) | > 100 µM (inactive) | 33.6 µM (inactive) | > 100 µM (inactive) | > 100 µM (inactive) | 70 µM (inactive) | 93.3 µM (inactive) | > 100 µM (inactive) | > 100 µM (inactive) |
